Measured values: US20240262826A1, “WILD TYPE KIT INHIBITORS” (Blueprint Medicines Corporation, priority 2022, published 2024)

Target: wild type c-kit (Homo sapiens (Human), UniProt P10721)
Experiment: MSD Phospho c-Kit (Tyr721) Assay Whole Cell Lysate Kit in SCF-stimulated M-07e cells (pKIT assay, marked *)
Type: cell-based
Conditions: Meso Scale Discovery (MSD) assay (values marked *)
Procedure: The ability of compounds of the disclosure (described herein as test compounds) to inhibit autophosphorylation of wild type c-kit was measures using either a PathScan phospho c-kit (Tyr719) sandwich ELISA (CST #7298) or a Phospho c-Kit (Tyr721) Assay Whole Cell Lysate Kit (MSD: 515DPD/catalog number K15119D-2).
For the MSD Phospho c-Kit (Tyr721) Assay Whole Cell Lysate Kit: M-07e cells were maintained in Iscove's Modified Dulbecco's Medium (IMDM) media supplemented with 10% FBS, 5 ng/ml granulocyte-macrophage colony-stimulating factor (GM-CSF) and 100 units/mL Penicillin-Streptomycin, and grown in a 37° C., 5% CO2 in a humidified tissue culture incubator. M-07e cells were washed with phenol red-free, serum-free, GM-CSF-free IMDM and seeded in the same media at 100,000 cells well in a volume of 50 ul in a 96-well U-bottom plate. The cells were incubated for 4 hours, followed by the addition of test compound at a final DMSO concentration of 0.25% for 60 min at 37° C. to generate an 8-point dose concentration series of test compounds. The cells were stimulated with 50 ng/ml human SCF for 10 min at room temperature. Cells were then lysed by the addition of 16.5 ul of PerkinElmer 5× AlphaLISA Lysis Buffer supplemented with Cell Signaling Technologies protease/phosphatase inhibitor. Lysis was encouraged by shaking at 4° C. for 30 minutes.
25 ul of lysate was transferred to the MSD plate and the plate was shaken at 700 rpm at room temperature for one hour, followed by washing 3 times with Tris wash buffer. Next, 25 ul of detection antibody solution (diluted from 50× stock in antibody dilution buffer) was added. After shaking at 700 rpm at room temperature for one hour, the plate was washed 3 times with Tris wash buffer. The plate was then read on MSD Sector Imager immediately after 150 ul of reading buffer added to each well.
An IC50 was calculated using a 4-parameter logistic nonlinear regression.

Chain of wild type c-kit (P10721 26-976): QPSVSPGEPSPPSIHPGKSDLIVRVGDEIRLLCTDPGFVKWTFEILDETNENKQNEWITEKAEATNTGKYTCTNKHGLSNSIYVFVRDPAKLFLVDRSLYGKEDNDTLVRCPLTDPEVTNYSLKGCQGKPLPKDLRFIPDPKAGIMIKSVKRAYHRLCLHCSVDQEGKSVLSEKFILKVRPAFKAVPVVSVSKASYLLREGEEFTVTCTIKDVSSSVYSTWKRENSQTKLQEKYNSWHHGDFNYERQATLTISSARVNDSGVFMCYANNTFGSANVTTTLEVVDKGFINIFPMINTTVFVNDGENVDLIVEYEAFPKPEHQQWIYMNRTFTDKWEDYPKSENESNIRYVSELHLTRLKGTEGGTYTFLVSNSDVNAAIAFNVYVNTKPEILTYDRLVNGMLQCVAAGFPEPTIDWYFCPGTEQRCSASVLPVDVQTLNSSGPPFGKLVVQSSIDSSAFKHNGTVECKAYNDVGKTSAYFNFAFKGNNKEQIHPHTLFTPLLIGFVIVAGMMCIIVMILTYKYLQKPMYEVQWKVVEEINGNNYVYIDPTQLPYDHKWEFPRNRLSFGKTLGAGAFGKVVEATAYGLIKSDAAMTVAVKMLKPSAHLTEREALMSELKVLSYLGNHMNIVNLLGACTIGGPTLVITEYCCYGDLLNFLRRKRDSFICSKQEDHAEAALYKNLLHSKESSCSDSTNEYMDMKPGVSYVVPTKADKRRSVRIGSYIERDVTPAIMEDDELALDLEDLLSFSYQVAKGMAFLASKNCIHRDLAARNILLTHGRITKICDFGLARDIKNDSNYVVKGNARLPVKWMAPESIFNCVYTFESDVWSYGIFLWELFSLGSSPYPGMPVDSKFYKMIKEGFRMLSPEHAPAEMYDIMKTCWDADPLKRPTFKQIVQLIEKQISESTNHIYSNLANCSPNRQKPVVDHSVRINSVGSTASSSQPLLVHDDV

Row | SMILES | IC50 [nM]
1 | Cc1ccc(-c2nnn(C3CC(F)(F)C3)n2)cc1NC(=O)c1cnn2ccc(N3CCOCC3)cc12 [Example 79, N-(5-(2-(3,3-difluorocyclobutyl)-2H-tetrazol-5-yl)-2-methylphenyl)-5-morpholinopyrazolo[1,5-a]pyridine-3-carboxamide] | 3.9
2 | Cc1ccc(-n2nnc(C3CC3)n2)cc1NC(=O)c1cnn2ccccc12 [Example 152, N-(5-(5-cyclopropyl-2H-tetrazol-2-yl)-2-methylphenyl)pyrazolo[1,5-a]pyridine-3-carboxamide] | 3.6
3 | Cc1ccc(-c2nnn(C3CCOCC3)n2)cc1NC(=O)c1cnn2ccccc12 [Example 31, N-(2-methyl-5-(2-(tetrahydro-2H-pyran-4-yl)-2H-tetrazol-5-yl)phenyl)pyrazolo[1,5-a]pyridine-3-carboxamide] | 8.3
4 | CO[C@H]1C[C@@H](n2nnc(-c3ccc(C)c(NC(=O)c4cnn5ccccc45)c3)n2)C1 [Example 35, N-(5-(2-((1s,3s)-3-methoxycyclobutyl)-2H-tetrazol-5-yl)-2-methylphenyl)pyrazolo[1,5-a]pyridine-3-carboxamide] | 3.8
5 | Cc1ccc(-c2nnn([C@H]3C[C@H](C(F)(F)F)C3)n2)cc1NC(=O)c1cnn2ccccc12 [Example 24, N-(2-methyl-5-(2-((1r,3r)-3-(trifluoromethyl)cyclobutyl)-2H-tetrazol-5-yl)phenyl)pyrazolo[1,5-a]pyridine-3-carboxamide or N-(2-methyl-5-(2-((1s,3s)-3-(trifluoromethyl)cyclobutyl)-2H-tetrazol-5-yl)phenyl)pyrazolo[1,5-a]pyridine-3-carboxamide] | 2.1
6 | Cc1ccc(-c2nnn(C3CC(F)C3)n2)cc1NC(=O)c1cnn2ccccc12 (stereo not drawn) [Example 32, N-(5-(2-(3-fluorocyclobutyl)-2H-tetrazol-5-yl)-2-methylphenyl)pyrazolo[1,5-a]pyridine-3-carboxamide] | 2.5
7 | Cc1ccc(-n2nnc(C3CN(S(=O)(=O)C4CC4)C3)n2)cc1NC(=O)c1cnn2ccccc12 [Example 188, N-(5-(5-(1-(cyclopropylsulfonyl)azetidin-3-yl)-2H-tetrazol-2-yl)-2-methylphenyl)pyrazolo[1,5-a]pyridine-3-carboxamide] | 2.9
8 | COC(=O)N1CC(c2nnn(-c3ccc(Cl)c(NC(=O)c4cnn5ccccc45)c3)n2)C1 [Example 194] | 11.6
9 | Cc1ccc(-c2nnn([C@H](C)C3CC3)n2)cc1NC(=O)c1cnn2ccccc12 (single isomer, unassigned) [Example 38, (S)-N-(5-(2-(1-cyclopropylethyl)-2H-tetrazol-5-yl)-2-methylphenyl)pyrazolo[1,5-a]pyridine-3-carboxamide or (R)-N-(5-(2-(1-cyclopropylethyl)-2H-tetrazol-5-yl)-2-methylphenyl)pyrazolo[1,5-a]pyridine-3-carboxamide] | 7.2
10 | Cc1ccc(-c2nnn(CC34CC(F)(C3)C4)n2)cc1NC(=O)c1cnn2ccccc12 [Example 30, N-(5-(2-((3-fluorobicyclo[1.1.1]pentan-1-yl)methyl)-2H-tetrazol-5-yl)-2-methylphenyl)pyrazolo[1,5-a]pyridine-3-carboxamide] | 2.7
11 | COC(=O)N1CC(c2cnn(-c3ccc(Cl)c(NC(=O)c4cnn5ccccc45)c3)n2)C1 [Example 193] | 5.2
12 | Cc1ccc(-c2nnn([C@@H](C)c3ccccc3F)n2)cc1NC(=O)c1cnn2ccccc12 [Example 33, (S)-N-(5-(2-(1-(2-fluorophenyl)ethyl)-2H-tetrazol-5-yl)-2-methylphenyl)pyrazolo[1,5-a]pyridine-3-carboxamide] | 2.7
